Experimental data published in PubChem BioAssay (NCI).
Where “and” joins values, the source holds several entries; their conditions need not be identical. Identical values can stand only once.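 All cell lines were grown in 96-well plates and treated with compound for 48 hours. GI50 marks 50% less growth. At the TGI there is no net growth.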

How the values were obtained:
Assay in all cases: growth of human tumour cells (NCI), 48 h
[1] = tested on: BT-549 breast
[2] = tested on: MCF7 breast
[3] = tested on: DU-145 prostate
[4] = tested on: MDA-MB-435
[5] = tested on: HOP-18 NSCLC
[6] = tested on: DMS 114 small cell lung
[7] = tested on: XF 498 CNS
[8] = tested on: MDA-MB-231 breast
[9] = tested on: DMS 273 small cell lung
[10] = tested on: PC-3 prostate
[11] = tested on: HS 578T breast
[12] = tested on: KM20L2 colon

O=C(CC1(O)C(=O)Nc2c(Cl)cc(Cl)cc21)c1ccc(Br)cc1Br (stereo not drawn)
TGI [1]: 22.3 µM | TGI [2]: 29.6 µM | TGI [3]: 32.3 µM | TGI [4]: 25.5 µM | TGI [5]: 27.9 µM | TGI [6]: 20.3 µM | TGI [7]: 23.8 µM | TGI [8]: 41.3 µM | TGI [9]: 22.9 µM | TGI [10]: 31.4 µM | TGI [11]: 26.5 µM | TGI [12]: 33.9 µM

COc1cc2c(cc1OC)-c1c3cc(O)ccc3nn[n+]1CC2
TGI [5]: > 100 µM | TGI [6]: > 100 µM | TGI [7]: > 100 µM | TGI [9]: > 100 µM | TGI [12]: > 100 µM

CCCCCCCCCCCOc1ccc(C(=O)C(=O)c2ccc(OCCCCCCCCCCC)c(OCCCCCCCCCCC)c2)cc1OCCCCCCCCCCC
TGI [6]: > 100 µM | TGI [7]: > 100 µM | TGI [9]: > 100 µM | TGI [12]: > 100 µM

COC(=O)[C@@H]1[C@H](O)[C@H](C)[C@H](O)[C@@](C)(O)/C=C\C=C(C)C(=O)Nc2c(C)c(OC(C)=O)c3c(c2O)C(=O)C(C)=C2OCOC(=C23)C(C)=C[C@@](C)(O)[C@H](O)[C@@H](C)[C@H]1OC(C)=O
TGI [3]: > 66.9 µM | GI50 [5]: 41.3 µM | TGI [5]: > 100 µM and 66.9 µM | TGI [6]: > 100 µM and 21.9 µM | TGI [9]: > 100 µM | TGI [10]: > 66.9 µM | TGI [12]: 66.9 µM and > 100 µM

C[C@]12CC[C@H](O)CC1=CC[C@@H]1C2CC[C@]2(C)C(=O)N(N)C(=O)CC12 (stereo partly drawn)
TGI [5]: > 100 µM | TGI [7]: > 100 µM | TGI [9]: > 100 µM | TGI [12]: > 100 µM

CC(C)C/C(CC(=O)CCC(=O)Nc1ccccc1[N+](=O)[O-])=N\NC(=O)c1cc2ccccc2cc1O
TGI [5]: > 100 µM | TGI [6]: 86.8 µM | TGI [7]: > 100 µM | TGI [12]: > 100 µM

O=CC[C@H]1C(=O)C[C@@H]2CCC[C@@H]21
TGI [7]: > 100 µM

CN(C)C(=N)c1ccccc1
TGI [6]: > 100 µM | TGI [7]: > 100 µM | TGI [9]: > 100 µM | TGI [12]: > 100 µM

N#CCCN(CCC#N)c1ccc(/C=C2\N=C(c3cc([N+](=O)[O-])ccc3Cl)OC2=O)cc1
TGI [6]: 47.9 µM | TGI [7]: 86.2 µM | TGI [9]: > 100 µM | TGI [12]: > 100 µM

CCC(CO)Nc1nc2ccc(Cl)cc2c2ccccc12 (stereo not drawn)
GI50 [1]: 10.1 µM | TGI [1]: 21.7 µM | GI50 [2]: 12.2 µM | TGI [2]: 26.1 µM | GI50 [3]: 12.8 µM | TGI [3]: 25.4 µM | GI50 [4]: 6.14 µM | TGI [4]: 18.8 µM | GI50 [8]: 4.9 µM | TGI [8]: 15.9 µM | GI50 [10]: 10.3 µM | TGI [10]: 24.9 µM | GI50 [11]: 8.82 µM | TGI [11]: 34.9 µM

CCOC(=O)C1=C(C)NC(=S)NC1c1ccccc1 (stereo not drawn)
TGI [5]: 98.4 µM | TGI [6]: > 57.2 µM | TGI [7]: 99.7 µM | TGI [9]: > 100 µM | TGI [12]: > 56.5 µM

COC(CN1C(=O)c2cccc3cccc(c23)C1=O)OC
TGI [5]: > 100 µM | TGI [6]: > 100 µM | TGI [7]: > 100 µM | TGI [9]: > 100 µM | TGI [12]: > 100 µM

Cc1nc2ccccc2c(N)c1-c1cc(C)c2c(C)nc3ccccc3c2n1
GI50 [1]: 1.05 µM | TGI [1]: 2.46 µM | GI50 [2]: 0.675 µM | TGI [2]: 2.06 µM | GI50 [3]: 0.479 µM | TGI [3]: 1.67 µM | GI50 [4]: 1.51 µM | TGI [4]: 2.86 µM | GI50 [8]: 0.298 µM | TGI [8]: 0.904 µM | GI50 [10]: 1.02 µM | TGI [10]: 3.1 µM | GI50 [11]: 0.891 µM

COC1CCC(N2C(=O)CNc3ncc(-c4ccc(C(C)(C)O)nc4)nc32)CC1 (stereo not drawn)
GI50 [1]: 0.329 µM and 0.0572 µM | TGI [1]: 3.6 µM and 0.991 µM | GI50 [2]: 0.305 µM and 0.127 µM | TGI [2]: > 10 µM and 12.6 µM | GI50 [3]: 1.42 µM and 0.459 µM | TGI [3]: > 38 µM | GI50 [4]: 0.668 µM and 0.167 µM | TGI [4]: 3.28 µM | GI50 [8]: 0.52 µM and 0.283 µM | TGI [8]: 4.8 µM and 25.3 µM | GI50 [10]: 0.322 µM and 0.108 µM | TGI [10]: 4.2 µM and > 33.5 µM | GI50 [11]: 0.407 µM and 0.137 µM | TGI [11]: 3.68 µM and 0.624 µM

O=C1CC(c2ccc3c(c2)OCO3)Nc2ccccc21 (stereo not drawn)
GI50 [1]: 5.99 µM | TGI [1]: 55.5 µM | GI50 [2]: 4.96 µM | TGI [2]: 36.7 µM | GI50 [3]: 3.1 µM | TGI [3]: 12.6 µM | GI50 [4]: 4.94 µM | TGI [4]: 31.1 µM | GI50 [8]: 8.06 µM | TGI [8]: 36.5 µM | GI50 [10]: 3.83 µM | TGI [10]: 36.6 µM | GI50 [11]: 17.8 µM | TGI [11]: 77 µM

CC1=C(C(=O)NCc2ccccc2)C(/C=C/c2ccccc2)C(C(=O)NCc2ccccc2)=C(C)N1
TGI [5]: > 100 µM | TGI [6]: > 100 µM | TGI [7]: > 100 µM | TGI [9]: > 100 µM | TGI [12]: > 100 µM

COc1ccc2c3c1C(=O)CCCC3CO2 (stereo not drawn)
TGI [6]: > 100 µM | TGI [7]: > 100 µM | TGI [9]: > 100 µM

Brc1ccc(N=c2nc3ccccn3n3nc(-c4ccccc4)cc23)cc1
TGI [5]: > 100 µM | TGI [6]: > 100 µM | TGI [7]: 77 µM | TGI [12]: > 100 µM

C=C1C(=O)C23CC1CCC2C12CO[C@@H]4OCC(C)(CC[C@@H]1OC3=O)C42 (stereo partly drawn)
TGI [5]: 15.5 µM | TGI [6]: 4.16 µM | TGI [7]: 3.41 µM | TGI [9]: 19.6 µM | TGI [12]: 17.5 µM

Cc1nc2ccccc2c(=O)n1-c1ccccc1I
TGI [6]: > 100 µM
